Data published in ChEMBL document CHEMBL1681749, “Antibacterial activities of imidazolium, pyrrolidinium and piperidinium salts” (2011).

What was measured:
Format in all cases: functional
Staphylococcus aureus = experiment: Antibacterial activity against Staphylococcus aureus subsp. aureus NBRC 15035 by agar-dilution method
Escherichia coli = experiment: Antibacterial activity against Escherichia coli MG1655 by agar-dilution method; conditions: K-12 substr. MG1655
Bacillus subtilis = experiment: Antibacterial activity against Bacillus subtilis 168 by agar-dilution method; conditions: subsp. subtilis str. 168
Pseudomonas putida = experiment: Antibacterial activity against Pseudomonas putida NBRC 14164 by agar-dilution method

Row | SMILES | MIC (Staphylococcus aureus) | MIC (Escherichia coli) | MIC (Bacillus subtilis) | MIC (Pseudomonas putida)
1 | CCCCCC#CC[n+]1ccn(CCCCCCCCC)c1C.[I-] | 0.78 µg/mL | 12.5 µg/mL | 0.78 µg/mL | 50 µg/mL
2 | CCCCCC#CC[n+]1ccn(CCCCCCCCCCCC)c1.[I-] | 0.39 µg/mL | 25 µg/mL | 0.39 µg/mL | 50 µg/mL
3 | CCCCCC#CC[n+]1ccn(CCCCCCCCCCCCCC)c1C.[I-] | 0.78 µg/mL | 100 µg/mL | 0.78 µg/mL | > 100 µg/mL
4 | CCCCCC#CC[n+]1ccn(CCCCCCCCCCCCCCCC)c1C.[I-] | 1.56 µg/mL | > 100 µg/mL | 1.56 µg/mL | > 100 µg/mL
5 | CCCCCC#CC[n+]1ccn(CCCC[Si](C)(C)C)c1.[I-] | 3.13 µg/mL | 50 µg/mL | 1.56 µg/mL | 100 µg/mL
6 | CCCCCC#CC[n+]1ccn(CCCCC[Si](C)(C)C)c1.[I-] | 0.78 µg/mL | 25 µg/mL | 0.39 µg/mL | 100 µg/mL
7 | CCCCCC#CC[n+]1ccn(CCCCC[Si](C)(C)C)c1C.[I-] | 0.39 µg/mL | 12.5 µg/mL | 0.39 µg/mL | 50 µg/mL
8 | CCCCCC#CC[n+]1ccn(CCCCCC[Si](C)(C)C)c1C.[I-] | 0.39 µg/mL | 12.5 µg/mL | 0.39 µg/mL | 50 µg/mL
9 | CCCCCC#CC[n+]1ccn(CCCCCCC[Si](C)(C)C)c1.[I-] | 0.78 µg/mL | 25 µg/mL | 0.39 µg/mL | 100 µg/mL
10 | CCCCCC#CC[n+]1ccn(CCCCCCC[Si](C)(C)C)c1C.[I-] | 0.39 µg/mL | 12.5 µg/mL | 0.39 µg/mL | 100 µg/mL
11 | CCCCCC#CC[n+]1ccn(CCCCCCCCC[Si](C)(C)C)c1.[I-] | 0.78 µg/mL | 100 µg/mL | 0.39 µg/mL | > 100 µg/mL
12 | CCCCCC#CC[n+]1ccn(CCCCCCCCCCC[Si](C)(C)C)c1C.[I-] | 1.56 µg/mL | > 100 µg/mL | 1.56 µg/mL | > 100 µg/mL
13 | CCCCCC#CC[N+]1(CCCCC[Si](C)(C)C)CCCC1.[I-] | 1.56 µg/mL | > 50 µg/mL | 1.56 µg/mL | > 50 µg/mL
14 | CCCCCC#CC[N+]1(C)CCCCC1.[I-] | > 50 µg/mL | > 50 µg/mL | > 50 µg/mL | > 50 µg/mL
15 | C#CC[n+]1ccn(CCCC[Si](C)(C)C)c1.[I-] | 100 µg/mL | > 100 µg/mL | > 100 µg/mL | > 100 µg/mL
16 | CCCCCCCC[n+]1ccn(CCCC[Si](C)(C)C)c1.[I-] | 3.13 µg/mL | 50 µg/mL | 1.56 µg/mL | > 100 µg/mL
17 | CCCCCc1ccc(-[n+]2ccn(CCCC[Si](C)(C)C)c2)cc1.[I-] | 0.39 µg/mL | 50 µg/mL | 0.39 µg/mL | 100 µg/mL
18 | C[Si](C)(C)CCCCn1cc[n+](Cc2ccc(CC[Si](C)(C)C)cc2)c1.[I-] | 0.39 µg/mL | > 100 µg/mL | 0.39 µg/mL | 100 µg/mL
19 | C[Si](C)(C)CCCCCn1cc[n+](Cc2ccc(CC[Si](C)(C)C)cc2)c1.[I-] | 0.78 µg/mL | > 100 µg/mL | 0.78 µg/mL | > 100 µg/mL
20 | CCCCCCCCCCCCCCCC[n+]1ccn(Cc2ccccc2)c1C.[I-] |  | 3.13 µg/mL | 1.56 µg/mL | 

Next, values leading:

Row | MIC (Staphylococcus aureus) | MIC (Escherichia coli) | MIC (Bacillus subtilis) | MIC (Pseudomonas putida) | SMILES
21 | 0.39 µg/mL | 3.13 µg/mL | 0.78 µg/mL | 50 µg/mL | CCCCCC#CC[n+]1ccn(CCCCCCCCCC)c1C.[I-]
22 | 0.39 µg/mL | 3.13 µg/mL | 0.39 µg/mL | 50 µg/mL | CCCCCC#CC[n+]1ccn(CCCCCCCCCCC)c1C.[I-]
23 | 0.39 µg/mL | 6.25 µg/mL | 0.39 µg/mL | 50 µg/mL | CCCCCC#CC[n+]1ccn(CCCCCCCCCCCC)c1C.[I-]
24 | 1.56 µg/mL | 50 µg/mL | 1.56 µg/mL | 100 µg/mL | CCCCCC#CC[n+]1ccn(CCCC[Si](C)(C)C)c1C.[I-]
25 | 0.78 µg/mL | 100 µg/mL | 0.39 µg/mL | 100 µg/mL | CCCCCC#CC[n+]1ccn(CCCCCCCCC[Si](C)(C)C)c1C.[I-]
26 | > 50 µg/mL | > 50 µg/mL | > 50 µg/mL | > 50 µg/mL | CCCCCC#CC[N+]1(C)CCCC1.[I-]
27 | 1.56 µg/mL | 50 µg/mL | 1.56 µg/mL | 100 µg/mL | CCCCCC#CC[N+]1(CCCCC[Si](C)(C)C)CCCCC1.[I-]
28 | 0.39 µg/mL | 100 µg/mL | 1.56 µg/mL | 100 µg/mL | C[Si](C)(C)CCCCn1cc[n+](-c2ccc(-c3ccccc3)cc2)c1.[I-]
29 | 1.56 µg/mL | > 100 µg/mL | 1.56 µg/mL | > 100 µg/mL | C[Si](C)(C)CCCCCCn1cc[n+](Cc2ccc(CC[Si](C)(C)C)cc2)c1.[I-]
30 | 1.56 µg/mL | > 100 µg/mL | 1.56 µg/mL | > 100 µg/mL | C[Si](C)(C)CCCCCCCn1cc[n+](Cc2ccc(CC[Si](C)(C)C)cc2)c1.[I-]
31 | > 6.25 µg/mL | > 100 µg/mL | 6.25 µg/mL | > 100 µg/mL | C[Si](C)(C)CCCCCCCCCn1cc[n+](Cc2ccc(CC[Si](C)(C)C)cc2)c1.[I-]
